According to patent US20210205292A1, “INHIBITORS OF CREB-CBP INTERACTION FOR TREATMENT OF LEUKEMIA” (The Board of Trustees of the Leland Stanford Junior …, priority 2016, published 2021):

Assays:
[1] = test system: CMV-driven promoter; assay: CMV-driven luciferase reporter in KG-1 cells; type: cell-based; conditions: 6 hours
Procedure: KG-1 cell lines were created to express luciferase in a CREB-dependent or non-CREB-dependent fashion using lentiviral gene delivery. Cells were sorted for mCherry expression by flow cytometry and selected with puromycin. Luciferase activity was measured on a […] using the Promega Luciferase Activity Kit (Promega) per manufacturer's instructions following six hours of treatment with Compound A or 0.1% DMSO. The split Renilla luciferase complementation assay has been described previously (Li BX, and Xiao X. Discovery of a small-molecule inhibitor of the KIX-KID interaction. Chembiochem: a European journal of chemical biology. 2009; 10(17):2721-4). In this assay, the KID and KIX domains were fused to the N- and C-terminal regions of Renilla luciferase, respectively. Once KIX binds phosphorylated KID, the Renilla luciferase regions were brought together, resulting in luciferase activity.
To test the ability of Compound A to disrupt CREB-CBP binding in cells, a split Renilla luciferase complementation assay was performed. […] This early timepoint was selected to permit accurate reporter gene activity measurement prior to the onset of anticipated global cell dysfunction or death induced by Compound A. Treatment with 3 μM Compound A reduced luciferase activity by 33.2±7.7% at this timepoint. […] Thus, Compound A inhibits CREB function through disruption of CREB:CBP interaction.

[2] = test system: normal bone marrow progenitor cells; assay: Methylcellulose hematopoietic cell colony assay; type: cell-based, human; conditions: up to 10 mM, colonies counted on day 14
Procedure: Human bone marrow cells from non-leukemic patients were resuspended in a volume of 0.3 mL of IMDM with 20% FBS at 5×10^5 cells/mL and mixed with varying concentrations of the Compound A (10 pM to 10 mM in 0.1% DMSO) or 0.1% DMSO control. This was added to 3 mL of methylcellulose-containing growth factors IL-3, IL-6, G-CSF, erythropoietin, SCF (Methocult GF-H4434; Stem Cell Technology) and plated. The colonies were observed daily and counted on day 14.

[3] = test system: H3K27 acetylation at CREB-bound genes; assay: Whole-genomic H3K27 histone acetylation analysis in KG-1 cells; type: cell-based; conditions: 5 μM
[4] = test system: CREB genomic binding; assay: CREB ChIP-Seq in KG-1 cells; type: cell-based; conditions: 5 μM, 6 hours
Procedure: For Chip-Seq experiments, KG-1 cells were treated with 5 μM Compound A or DMSO for 6 hours. Cells were cross-linked with 1% formaldehyde at room temperature for 10 min and then incubated with […] for 5 min. After cross-linking, chromatin was digested by Micrococcal nuclease and then sonicated using SimpleChIP® Plus Enzymatic Chromatin IP Kit (Cell Signaling, Danvers, Mass.) following the manufacturer's protocol. Chromatin immunoprecipitations were carried out with anti-CREB antibody (Millipore, Billerica, Mass.) or a control IgG (Santa Cruz Biotechnology). The captured immunocomplexes containing bound transcriptional DNA fragments were eluted, with recovered DNA fragments used for PCR amplification. For RNA-Seq experiments, KG-1 cells were treated with Compound A (5 μM) or 0.1% DMSO for 12 hours. RNA was prepared using the Aurum Total RNA Mini Kit (Bio-Rad). Sample libraries were run using the Illumina sequencing platform. Two hundred million reads were collected on two biological replicates of the experiment. […]
To determine the functional specificity and downstream effects of Compound A in AML, the CREB transcriptome was first defined in KG-1 cells using CREB chromatin immunoprecipitation followed by high-throughput sequencing (CREB ChIP-Se). […] In this way, the ‘on-target’ effects of Compound A could be assessed.

[5] = test system: CREB target genes in KG-1 and HL-60 cells; assay: RT-PCR of target genes in KG-1 and HL-60 cells; type: cell-based
Procedure: Total RNA was isolated using the Aurum RNA Isolation Mini Kit, and the iScript cDNA Synthesis Kit was used to prepare samples for qPCR (Bio-Rad). PCR was performed on the CFX384 Real-Time System (Bio-Rad) and results were analyzed using the Livak method. For analysis of RNA-seq data as target genes of known transcription factors, a curated list of all human target genes was extracted from the TRANSFAC Pro database.
To assess for potential ‘off-target’ effects of Compound A, the RNA-Seq gene expression profiles of other transcription factors that bind CBP, including Rel, RelA, RelB, Foxo3, Foxo1 and Myb, were analyzed. […] PLoS One. 2011; 6(12):e28712) (FIG. 9, panel E).

With `N#Cc1ccc(NC(=O)c2cc3ccccc3cc2O)cc1` [Compound A, N-(4-cyanophenyl)-3-hydroxy-2-naphthamide] the CMV-driven luciferase expression [1] was “unchanged”, the colony formation [2] was “no significant decrease in colony formation” and the “CREB-bound genes with decreased H3K27 histone acetylation” value [3] was “Greater than 95%”. For the same molecule, the CREB genomic binding [4] was “did not change”, the “Myb-driven gene expression (SP3, FPR1, PRODH, SLC34A2)” value [5] was “No changes in gene expression were observed” and the “CREB target gene expression (qPCR)” value ([5]; conditions as for RNA-Seq) was “consistently reduced CREB target gene expression”.
